Results from PubChem BioAssay AID344 (DTP/NCI, 2004).
Inconclusive results and toxic doses are left out.

Tested on: mice, LPC-1 plasma cell tumor ip, median survival T/C
Assay: NCI In Vivo Anticancer Drug Screen. Data for tumor model Lieberman Plasma Cell No. 1 (LPC-1) (intraperitoneal) in unknown mice
Settings: endpoint: median survival time, higher = longer survival
Method: The antitumor activity of compounds was measured in mice bearing transplantable tumors. Survival or tumor size were measured and the results are expressed as the measurement made in the treated group (T) divided by the measurement made in the vehicle treated control group (C). The tumor model used in this assay is Lieberman Plasma Cell No. 1 (LPC-1) (intraperitoneal) in unknown mice

Row | SMILES | T/C (dose: 128.0 mg/kg/injection, schedule: Q01DX028 (sc), vehicle: other) | T/C (dose: 400.0 mg/kg/injection, schedule: Q01DX028 (sc), vehicle: saline) | T/C (dose: 512.0 mg/kg/injection, schedule: Q01DX028 (sc), vehicle: other) | T/C (dose: 50.0 mg/kg/injection, schedule: Q01DX008 (sc), vehicle: saline) | T/C (dose: 100.0 mg/kg/injection, schedule: Q01DX008 (sc), vehicle: saline) | T/C (dose: 200.0 mg/kg/injection, schedule: Q01DX008 (sc), vehicle: saline) | T/C (dose: 400.0 mg/kg/injection, schedule: Q01DX008 (sc), vehicle: saline)
1 | CCOC(N)=O | 98 % of control | 210 % of control | 175 % of control | – | – | – | –
2 | CC1(C)CC2(CC(C)(C)Oc3cc(O)ccc32)c2ccc(O)cc2O1 | – | – | – | 100 % of control | 97 % of control | 97 % of control | 92 % of control
